Source: patent publication US20230150981A1, “N-HETEROARYLALKYL-2-(HETEROCYCLYL AND HETEROCYCLYLMETHYL) ACETAMIDE DERIVATIVES AS SSTR4 AGONISTS” (Takeda Pharmaceutical Compnay Limited, priority 2020, published 2023)

Columns and labels:
[1] = biological target: T1, SSTR1 (Homo sapiens, UniProt P30872); test: SSTR1 I-125 somatostatin competition binding assay for selectivity versus SSTR1 (CHO-K1 membranes); details: competition with I-125 somatostatin, membranes from CHO-K1 overexpressing SSTR1; read-out: SSTR1 Binding pIC50 (converted)
T1 construct: purchased Perkin Elmer ES-520-M400UA; host or cells: CHO-K1 membranes
T1 sequence (P30872 whole entry): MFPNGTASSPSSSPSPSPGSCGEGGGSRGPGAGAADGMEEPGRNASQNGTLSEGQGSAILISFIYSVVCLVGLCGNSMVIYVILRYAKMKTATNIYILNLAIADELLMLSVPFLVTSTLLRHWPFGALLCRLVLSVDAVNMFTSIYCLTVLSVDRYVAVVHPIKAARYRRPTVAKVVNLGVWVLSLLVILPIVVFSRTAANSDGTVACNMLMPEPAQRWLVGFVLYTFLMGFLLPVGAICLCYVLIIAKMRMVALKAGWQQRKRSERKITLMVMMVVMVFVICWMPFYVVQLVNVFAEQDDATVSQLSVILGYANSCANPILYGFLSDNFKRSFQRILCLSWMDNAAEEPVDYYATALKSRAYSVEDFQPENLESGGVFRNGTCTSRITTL
Protocol: SSTR1 I-125 Somatostatin Competition Binding Assay for Selectivity Versus SSTR1
Membranes from CHO-K1 cells overexpressing SSTR1 are purchased from Perkin Elmer (catalog number ES-520-M400UA). Test compounds are suspended in DMSO and then diluted in assay buffer (25 mM HEPES pH 7.4, 10 mM MgCl2, 1 mM CaCl2), 0.5% BSA) plus 0.4 nM I-125 labeled somatostatin (Perkin Elmer catalog number NEX389). Fifty μL of compound/I-125 somatostatin in assay buffer are added per well to 96-well poly-propylene plate. Then 10 μg of SSTR1 membranes in 50 μL assay buffer are added per well. The plate is incubated for 60 minutes at room temperature. FilterMat A filters (Perkin Elmer catalog number 1450-421) are pre-soaked in 0.5% PEI (Sigma catalog number P3143). The contents of the assay plate are transferred to filters with a TomTech harvester and washed 5 times with 20 mM HEPES, 100 mM NaCl. The filters are dried in a microwave oven then transferred to sample bag containing a scintillator sheet (Perkin Elmer catalog number 1450-441). The scintillator sheets are melted to the filters using a heat block. The filters are then read in a MicroBeta scintillation counter. Binding Ki curves are generated using Activity Base for Screening Data Management and the results are reported as pIC50.

[2] = biological target: T2, SSTR4 (Homo sapiens, UniProt P31391); test: SSTR4 I-125 somatostatin competition binding assay (CHO-K1 membranes); details: competition with I-125 somatostatin, membranes from CHO-K1 overexpressing SSTR4; read-out: SSTR4 Binding pIC50 (converted)
T2 construct: host or cells: CHO-K1
T2 sequence (P31391 whole entry): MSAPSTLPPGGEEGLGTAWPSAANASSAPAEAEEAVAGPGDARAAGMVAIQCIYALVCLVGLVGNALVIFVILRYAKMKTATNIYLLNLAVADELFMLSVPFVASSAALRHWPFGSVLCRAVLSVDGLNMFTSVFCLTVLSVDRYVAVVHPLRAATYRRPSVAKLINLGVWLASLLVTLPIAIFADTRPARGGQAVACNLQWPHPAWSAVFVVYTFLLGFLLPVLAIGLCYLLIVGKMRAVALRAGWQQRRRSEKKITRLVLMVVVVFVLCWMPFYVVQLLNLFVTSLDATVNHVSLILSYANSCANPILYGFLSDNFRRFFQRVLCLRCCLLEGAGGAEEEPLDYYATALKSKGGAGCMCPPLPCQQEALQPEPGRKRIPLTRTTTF
Protocol: SSTR4 I-125 Somatostatin Competition Binding Assay
Membranes from CHO-K1 cells overexpressing SSTR4 are purchased from Perkin Elmer (catalog number ES-524-M400UA). Test compounds are suspended in DMSO and then diluted in assay buffer (25 mM HEPES pH 7.4, 10 mM MgCl2, 1 mM CaCl2), 0.5% BSA) plus 0.2 nM I-125 labeled somatostatin (Perkin Elmer catalog number NEX389). Fifty μL of compound/I-125 somatostatin in assay buffer are added per well to 96-well poly-propylene plate. Then 1 μg of SSTR4 membranes in 50 μL assay buffer are added per well. The Plate is incubated for 60 minutes at room temperature. FilterMat A filters (Perkin Elmer catalog number 1450-421) are pre-soaked in 0.5% PEI (Sigma catalog number P3143). The contents of the assay plate are transferred to filters with a TomTech harvester and washed 5 times with 20 mM HEPES, 100 mM NaCl. The filters are dried in a microwave oven then transferred to sample bag containing a scintillator sheet (Perkin Elmer catalog number 1450-441). The scintillator sheets are melted to filters using a heat block. The filters are then read in a MicroBeta scintillation counter. Binding Ki curves are generated using Activity Base for Screening Data Management and the results are reported as pIC50.

[3] = biological target: T2, SSTR4; test: Inhibition of forskolin stimulated cAMP in CHO-K1 cells overexpressing SSTR4; format: cell-based; details: read-out: SSTR4 Activity pEC50 (converted)
Protocol: Inhibition of Forskolin Stimulated cAMP in Cells Overexpressing SSTR4
This cell-based assay measures the ability of compounds to inhibit forskolin stimulated cAMP in CHO-K1 cells overexpressing SSTR4. CHO-K1 cells overexpressing SSTR4 (CHO-SSTR4) are purchased from DiscoveRx (product code 95-0059C2). The CHO-SSTR4 cells are maintained in F12K media with 10% Fetal Bovine Serum (Hyclone), 1% Pen/Strep (Life Technologies), and 800 μg/mL G418 (Life Technologies). To perform the assay, 3000 cells are plated per well in white 384-well plate (Corning 3570) in 50 μL complete media and the cells are allowed to attach for 16 hours in a 37° C., 5% CO2 incubator. The next day, the culture media is removed from the cells and the cells are washed (added then removed) with Krebs Ringer Buffer (ZenBio, KRB-1000 mL). Test compounds are suspended in DMSO and diluted in stimulation buffer: Krebs Ringer Buffer plus 0.5% BSA (Roche), 300 μM IBMX (Sigma), and 350 nM forskolin (Sigma). The cells are incubated in 10 μL compound/stimulation buffer for 30 minutes at room temperature. Cellular cAMP levels are detected with a HTRF LANCE Ultra cAMP kit (Perkin Elmer, catalog number TRF0264).
The assay is performed in accordance with the manufacturer's instructions. Five μL of diluted Eu-W8044 labeled streptavidin (dilution: 1:50 in cAMP Detection Buffer) is added to each well. Then 5 μL of diluted biotin cAMP (dilution: 1:150 in cAMP Detection Buffer) is added to each well. The plates are covered and allowed to incubate for 60 minutes at room temperature on a shaker. HTRF (665 nm/615 nm) is read on a Perkin Elmer ENVISION plate reader. The pEC50 values are generated using Activity Base for Screening Data Management.

SMILES | IC50 [1] [nM] | IC50 [2] [nM] | EC50 [3] [nM]
C[C@@H](C(=O)NC(C)(C)c1nccc2ccccc12)[C@@H]1CCCN1C (racemic) [Example 110, (R)-N-(2-(isoquinolin-1-yl)propan-2-yl)-2-((S)-1-methylpyrrolidin-2-yl)propanamide and (S)-N-(2-(isoquinolin-1-yl)propan-2-yl)-2-((R)-1-methylpyrrolidin-2-yl)propanamide] | 12600 | 79.4 | 3.98
C[C@@H](C(=O)NC(C)(C)c1nccc2ccccc12)[C@H]1CCCN1C (racemic) [Example 111, (R)-N-(2-(isoquinolin-1-yl)propan-2-yl)-2-((R)-1-methylpyrrolidin-2-yl)propanamide and (S)-N-(2-(isoquinolin-1-yl)propan-2-yl)-2-((S)-1-methylpyrrolidin-2-yl)propanamide] | 3980 | 25.1 | 3.16
Cc1cccc2c(C(C)(C)NC(=O)C[C@H]3CCCCN3C)nccc12 (single isomer, unassigned) [Example 8] | 3980 | 50.1 | 2.51
Cc1cccc2c(C(C)(C)NC(=O)C[C@@H]3CCCCN3C)nccc12 (single isomer, unassigned) [Example 9] | 7940 | 126 | 12.6
CN1CCCC[C@@H]1CC(=O)NC(C)(C)c1nccc2occc12 (single isomer, unassigned) [Example 14] | 25100 | 79.4 | 6.31
CN1CCCC[C@H]1CC(=O)NC(C)(C)c1nccc2occc12 (single isomer, unassigned) [Example 15] | – | 316 | 25.1
COc1c(C)cccc1C(C)(C)NC(=O)[C@@H](C)CN1CCC1 (single isomer, unassigned) [Example 147] | – | 1580 | 63.1
CN1CCCCC1CC(=O)NC(C)(C)c1nccc2occc12 (centres unmarked) [Example 13, N-(2-(furo[3,2-c]pyridin-4-yl)propan-2-yl)-2-(1-methylpiperidin-2-yl)acetamide] | – | 126 | 20
CCN1CCCC1CC(=O)NC1(COc2ncccc2C)CC1 (centres unmarked) [Example 63, 2-(1-ethylpyrrolidin-2-yl)-N-(1-(((3-methylpyridin-2-yl)oxy)methyl)cyclopropyl)acetamide] | – | 1580 | 63.1
CN1CCC[C@H]1CC(=O)NC(C)(C)COc1cc(Cl)c(F)cn1 [Example 105, (S)-N-(1-((4-chloro-5-fluoropyridin-2-yl)oxy)-2-methylpropan-2-yl)-2-(1-methylpyrrolidin-2-yl)acetamide] | – | – | 794
CN1CCC[C@@H]1CC(=O)NC(C)(C)COc1ncccc1OC(F)(F)F [Example 106, (R)-N-(2-methyl-1-((3-(trifluoromethoxy)pyridin-2-yl)oxy)propan-2-yl)-2-(1-methylpyrrolidin-2-yl)acetamide] | – | – | 20
CCOc1cccnc1OCC(C)(C)NC(=O)C[C@H]1CCCN1C [Example 107, (R)-N-(1-((3-ethoxypyridin-2-yl)oxy)-2-methylpropan-2-yl)-2-(1-methylpyrrolidin-2-yl)acetamide] | – | – | 200
CN1CCC[C@@H]1CC(=O)NC(C)(C)COc1ncccc1C1CC1 [Example 108, (R)-N-(1-((3-cyclopropylpyridin-2-yl)oxy)-2-methylpropan-2-yl)-2-(1-methylpyrrolidin-2-yl)acetamide] | – | – | 20
CCOc1cccnc1OCC(C)(C)NC(=O)C[C@@H]1CCCN1C [Example 109, (S)-N-(1-((3-ethoxypyridin-2-yl)oxy)-2-methylpropan-2-yl)-2-(1-methylpyrrolidin-2-yl)acetamide] | – | – | 631
COc1c(Cl)cccc1C(C)(C)NC(=O)C[C@H]1CCCN1C [Example 113, (R)-N-(2-(3-chloro-2-methoxyphenyl)propan-2-yl)-2-(1-methylpyrrolidin-2-yl)acetamide] | – | – | 79.4
COc1c(F)cccc1C(C)(C)NC(=O)C[C@@H]1CCCN1C [Example 114, (S)-N-(2-(3-fluoro-2-methoxyphenyl)propan-2-yl)-2-(1-methylpyrrolidin-2-yl)acetamide] | – | – | 251
COc1c(F)cccc1C(C)(C)NC(=O)C[C@H]1CCCN1C [Example 115, (R)-N-(2-(3-fluoro-2-methoxyphenyl)propan-2-yl)-2-(1-methylpyrrolidin-2-yl)acetamide] | – | – | 200
COc1c(C)cccc1C(C)(C)NC(=O)C[C@@H]1CCCN1C [Example 116, (S)-N-(2-(2-methoxy-3-methylphenyl)propan-2-yl)-2-(1-methylpyrrolidin-2-yl)acetamide] | – | – | 79.4
COc1c(C)cccc1C(C)(C)NC(=O)C[C@H]1CCCN1C [Example 117, (R)-N-(2-(2-methoxy-3-methylphenyl)propan-2-yl)-2-(1-methylpyrrolidin-2-yl)acetamide] | – | – | 158
Cc1cccnc1OCC1(NC(=O)CC2CCCCN2C)CC1 (centres unmarked) [Example 120, 2-(1-methylpiperidin-2-yl)-N-(1-(((3-methylpyridin-2-yl)oxy)methyl)cyclopropyl)acetamide] | – | – | 251
Cc1cccnc1OCC1(NC(=O)C[C@H]2CCCN2C)CC1 [Example 121, (R)-N-(1-(((3-methylpyridin-2-yl)oxy)methyl)cyclopropyl)-2-(1-methylpyrrolidin-2-yl)acetamide] | – | – | 631
CN1CCC[C@H]1CC(=O)NC(C)(C)COc1nccc2ccoc12 [Example 122, (S)-N-(1-(furo[2,3-c]pyridin-7-yloxy)-2-methylpropan-2-yl)-2-(1-methylpyrrolidin-2-yl)acetamide] | – | – | 316
CN1CCC[C@H]1CC(=O)NC(C)(C)COc1ccccn1 [Example 123, (S)-N-(2-methyl-1-(pyridin-2-yloxy)propan-2-yl)-2-(1-methylpyrrolidin-2-yl)acetamide] | – | – | 158
Cc1cnc(OCC(C)(C)NC(=O)C[C@@H]2CCCN2C)c(Cl)c1 [Example 124, (S)-N-(1-((3-chloro-5-methylpyridin-2-yl)oxy)-2-methylpropan-2-yl)-2-(1-methylpyrrolidin-2-yl)acetamide] | – | – | 39.8
CN1CCC[C@H]1CC(=O)NC(C)(C)COc1nccc2occc12 [Example 125, (S)-N-(1-(furo[3,2-c]pyridin-4-yloxy)-2-methylpropan-2-yl)-2-(1-methylpyrrolidin-2-yl)acetamide] | – | – | 126
Cc1ccc(C(NC(=O)C[C@@H]2CCCN2C)C(F)(F)F)cc1 (stereo partly drawn) [Example 158, 2-((S)-1-methylpyrrolidin-2-yl)-N-(2,2,2-trifluoro-1-(p-tolyl)ethyl)acetamide] | – | – | 398
CN1CCC[C@@H]1CC(=O)NC(C)(C)c1ccccc1F [Example 159, (R)-N-(2-(2-fluorophenyl)propan-2-yl)-2-(1-methylpyrrolidin-2-yl)acetamide] | – | – | 398
